What was measured:
human BACE1 = human BACE1 (Homo sapiens, UniProt P56817); test: BACE1 efficacy assay (FRET-based, commercial BACE1 kit); type: biochemical; design: purchased Life Technologies P2985; settings: 10 μM test compound
Description: The efficacy assay was performed as a FRET-based assay using a commercially available BACE1 kit (Life Technologies, P2985). 2 μl test compound at 10 μM (final concentration) and 15 μl BACE1 enzyme from the kit (final concentration 3 nM) were preincubated for 15 minutes at room temperature before addition of 15 μl of substrate from the kit (250 nM final concentration) and incubated for additional 90 minutes at room temperature. The assay plate was subsequently read in a Pherastar (Ex540/Em590). The enzyme activity observed in presence of test compound were normalized to the enzyme activity observed in presence of buffer and 10 μM (final concentration) of the high affinity BACE1 reference inhibitor (S)-6-[3-Chloro-5-(5-prop-1-ynyl-pyridin-3-yl)-thiophen-2-yl]-2-imino-3,6-dimethyl-tetrahydropyrimidin-4-one, respectively. The efficacy of the test compounds was evaluated at 10 μM (final concentration) and defined as the percent inhibition of the enzyme activity using the equation % inhibition=100%−normalized enzyme activity in percent.

P-gp (MDR1) = test: MDCK-MDR1 assay (permeability, efflux ratio); type: in vitro ADME; settings: dog, Papp BA/Papp AB, 60-minute incubation

Chain of human BACE1 (P56817 46-501): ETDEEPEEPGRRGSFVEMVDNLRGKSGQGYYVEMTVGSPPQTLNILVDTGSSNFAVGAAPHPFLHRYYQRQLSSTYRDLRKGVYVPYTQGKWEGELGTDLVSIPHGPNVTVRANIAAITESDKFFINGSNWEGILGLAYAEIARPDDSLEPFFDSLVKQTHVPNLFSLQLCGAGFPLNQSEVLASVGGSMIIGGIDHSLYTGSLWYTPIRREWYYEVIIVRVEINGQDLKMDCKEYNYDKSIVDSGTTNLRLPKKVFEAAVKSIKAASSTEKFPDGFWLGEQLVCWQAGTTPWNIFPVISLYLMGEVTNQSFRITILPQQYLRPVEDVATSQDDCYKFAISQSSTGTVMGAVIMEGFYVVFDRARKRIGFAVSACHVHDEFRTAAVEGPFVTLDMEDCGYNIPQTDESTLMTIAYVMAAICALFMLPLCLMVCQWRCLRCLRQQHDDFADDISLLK

inhibition at 10 µM (human BACE1)	efflux ratio at 60 min, 0.5 μM (P-gp (MDR1))	Compound
99%	1.85	[2H]C([2H])([2H])Oc1ccc(C(=O)Nc2ccc(F)c([C@]34COC[C@H]3C[C@@](F)(CF)C(N)=N4)c2)nc1 [Example 22, N-(3-((3S,4aS,7aS)-2-amino-3-fluoro-3-(fluoromethyl)-3,4,4a,5-tetrahydrofuro[3,4-b]pyridin-7a-yl)-4-fluorophenyl)-5-(methoxy-d3)picolinamide]
104%	0.94	COc1cnc(C(=O)Nc2ccc(F)c([C@]34COC[C@@]3(F)C[C@@](C)(F)C(N)=N4)c2)cn1 [Example 7, N-(3-((3R,4aR,7aS)-2-amino-3,4a-difluoro-3-methyl-3,4,4a,5,7,7a-hexahydrofuro[3,4-b]pyridin-7a-yl)-4-fluorophenyl)-5-methoxypyrazine-2-carboxamide]
